In US20240300886A1, “ARYLCYCLOHEXYLAMINE DERIVATIVES AND THEIR USE IN THE TREATMENT OF PSYCHIATRIC DISORDERS” (GILGAMESH PHARMACEUTICALS, INC., priority 2021, published 2024):
Where two headings read alike, the source gives them in different places.

What was measured:
[1] = tested on: immobility time in the FST; assay: Forced swim test (FST) in rats; format: in vivo, Sprague-Dawley rats; settings: s.c., 23.5-h pre-treatment time
Method: Disclosed compounds were tested in the forced swim test (FST) in rats with a 23.5-h pre-treatment time according to the following procedures.
Animals. Male Sprague-Dawley rats, aged 8-10 weeks, were used in the experiments. Animals were housed in groups of 2 under controlled temperature (22±3° C.) and relative humidity (30-70%) conditions, with 12-hour light/dark cycles, and with ad libitum food and water. All efforts were made to minimize suffering.
Drugs and Drug Administration. Test compounds, saline vehicle, and the positive control desipramine were administered subcutaneously (s.c.), with doses calculated based on the freebase. Normal saline was used as the vehicle for compounds provided as the HCl salt, while saline acidified with 1-2 molar equivalents of HCl was used as the vehicle for compounds provided as the freebase (to form the soluble HCl salt in situ). All compounds were administered at a volume of 5 mL/kg. Test compounds and vehicle were administered 0.5 h after the start of the training swim (Swim 1) and 23.5 h before the test swim (Swim 2). […]
Behavioral scoring was conducted by observers who were blind to the treatment groups. Animals were continuously observed during Swim 2 and the total time spent engaging in the following behaviors was recorded: immobile, swimming, and climbing. […]

[2] = target: recombinant human NMDA receptor (GRIN1/GRIN2B) (Homo sapiens (Human), UniProt Q05586+Q13224); assay: Unblocking kinetics at the NMDA receptor in Xenopus laevis oocytes (two-electrode voltage clamp); format: cell-based; settings: for Unblocking T1/2 ± SEM: compounds applied at 3×IC50, -70 mV, n ≥ 5
Method: Compounds 2R, 2S, and 2-(2-fluorophenyl)-2-(methylamino)cyclohexan-1-one 2-F-DCK were tested for unblocking kinetics at the NMDA receptor in Xenopus laevis oocytes expressing recombinant human NMDA receptor (GRIN1/GRIN2B) (Table 22).
Experimental Procedure. Oocytes were harvested from adult Xenopus laevis and incubated in 96 well plates for two to four days prior to recordings. Plasmids containing cDNA encoding for human NMDA receptor subunits GRIN1 and GRIN2B were transcribed using the mMessage mMachine T7 transcription kit (Ambion, USA). The Roboocyte automated injection system was used for injection of cRNA coding for hNMDA receptor subunits at a concentration of 100 ng/μL per subunit. Oocytes were clamped to a holding potential of −70 mV and induced currents after compound application were sampled at 200 Hz at room temperature. Agonist induced currents were recorded with a two-electrode voltage clamp. To determine the unblocking kinetics, glutamate and glycine (3 and 10 μM, respectively) were applied to the oocytes and the current recorded for 90 s. Then, compounds were applied at 3×IC50 for 120 s and the currents recorded.

[3] = Stability in liver microsomes (Example 21), beagle dog; format: in vitro ADME; settings: male, pH 7.4, 0.5 mg/mL protein
Method: General Procedure. Briefly, test compounds (final concentration 1 μM) were incubated in duplicate with liver microsomes from male animals of the indicated species (final protein concentration 0.5 mg/mL) in 50 mM sodium phosphate buffer (pH 7.4) with or without NADPH (1 mM). Total incubation volume was 500 μL. At 0, 5, 15, 30, and 60 min, aliquots of 50 μL were withdrawn, quenched with acetonitrile (150 μL), and analyzed for parent compound remaining using a fit-for-purpose LC-MS/MS method. Intrinsic clearance and half-life were calculated. Clearance values below zero were rounded to zero.

[4] = Comparative oral pharmacokinetics of 2R, 2S and 2-F-DCK in mice; format: in vivo, C57BL/6 mice; settings: 10 mg/kg po; for Cmax / half-life / AUC(0-t): male, C57BL/6; for half-life: read-out: t1/2 (po); for AUC(0-t): read-out: AUC0-last (po) (converted)
Method: Animals. Male C57BL/6 mice were used in these studies. Aminals were randomly assigned to treatment groups and were fasted for 4 h before dosing.
Drugs. Test compounds were dissolved in a vehicle consisting of normal saline, They were then administered orally (po) at a dose of 10 mg/kg (calculated based on freebase) and at a volume of 10 mL/kg body weight.
Sample Collection and Bioanalysis. Blood samples (approximately 60 μL) were collected under light isoflurane anesthesia (Surgivet®) from the retro orbital plexus at 0.08, 0.25, 0.5, 1, 2, 4, 8, and 24 h (4 animals per time point). Immediately after blood collection, plasma was harvested by centrifugation at 4,000 rpm for 10 min at 4° C. and samples were stored at −70±10° C. until bioanalysis. Following blood collection, animals were immediately sacrificed, the abdominal vena-cava was cut open, and the whole body was perfused from the heart using 10 mL of normal saline, and brain samples were collected from all animals. After isolation, brain samples were rinsed three times in ice-cold normal saline (for 5-10 seconds/rinse using ˜5-10 mL normal saline in disposable petri dish for each rinse) and dried on blotting paper. Brain samples were homogenized using ice-cold phosphate-buffered saline (pH 7.4). Total homogenate volume was three times the tissue weight. All homogenates were stored at −70±10° C. until bioanalysis. For bioanalysis, 25 μL aliquots of plasma/brain study samples or spiked plasma/brain calibration standards were added to individual pre-labeled micro-centrifuge tubes followed by 100 μL of an internal standard solution (glipizide, 500 ng/mL in acetonitrile) except for blanks, where 100 μL of acetonitrile was added. Samples were vortexed for 5 minutes and then centrifuged for 10 minutes at 4,000 rpm at 4° C. Following centrifugation, 100 μL of each clear supernatant was transferred to a 96 well plate and analyzed with a fit-for-purpose LC-MS/MS method, with authentic samples of each analyte used for calibration and identification.
Data Analysis. Pharmacokinetic parameters were estimated using the non-compartmental analysis tool of Phoenix® WinNonlin software (Ver 8.0).

Sequence of recombinant human NMDA receptor (GRIN1/GRIN2B) (Q13224 whole entry, looked up, other chains not shown): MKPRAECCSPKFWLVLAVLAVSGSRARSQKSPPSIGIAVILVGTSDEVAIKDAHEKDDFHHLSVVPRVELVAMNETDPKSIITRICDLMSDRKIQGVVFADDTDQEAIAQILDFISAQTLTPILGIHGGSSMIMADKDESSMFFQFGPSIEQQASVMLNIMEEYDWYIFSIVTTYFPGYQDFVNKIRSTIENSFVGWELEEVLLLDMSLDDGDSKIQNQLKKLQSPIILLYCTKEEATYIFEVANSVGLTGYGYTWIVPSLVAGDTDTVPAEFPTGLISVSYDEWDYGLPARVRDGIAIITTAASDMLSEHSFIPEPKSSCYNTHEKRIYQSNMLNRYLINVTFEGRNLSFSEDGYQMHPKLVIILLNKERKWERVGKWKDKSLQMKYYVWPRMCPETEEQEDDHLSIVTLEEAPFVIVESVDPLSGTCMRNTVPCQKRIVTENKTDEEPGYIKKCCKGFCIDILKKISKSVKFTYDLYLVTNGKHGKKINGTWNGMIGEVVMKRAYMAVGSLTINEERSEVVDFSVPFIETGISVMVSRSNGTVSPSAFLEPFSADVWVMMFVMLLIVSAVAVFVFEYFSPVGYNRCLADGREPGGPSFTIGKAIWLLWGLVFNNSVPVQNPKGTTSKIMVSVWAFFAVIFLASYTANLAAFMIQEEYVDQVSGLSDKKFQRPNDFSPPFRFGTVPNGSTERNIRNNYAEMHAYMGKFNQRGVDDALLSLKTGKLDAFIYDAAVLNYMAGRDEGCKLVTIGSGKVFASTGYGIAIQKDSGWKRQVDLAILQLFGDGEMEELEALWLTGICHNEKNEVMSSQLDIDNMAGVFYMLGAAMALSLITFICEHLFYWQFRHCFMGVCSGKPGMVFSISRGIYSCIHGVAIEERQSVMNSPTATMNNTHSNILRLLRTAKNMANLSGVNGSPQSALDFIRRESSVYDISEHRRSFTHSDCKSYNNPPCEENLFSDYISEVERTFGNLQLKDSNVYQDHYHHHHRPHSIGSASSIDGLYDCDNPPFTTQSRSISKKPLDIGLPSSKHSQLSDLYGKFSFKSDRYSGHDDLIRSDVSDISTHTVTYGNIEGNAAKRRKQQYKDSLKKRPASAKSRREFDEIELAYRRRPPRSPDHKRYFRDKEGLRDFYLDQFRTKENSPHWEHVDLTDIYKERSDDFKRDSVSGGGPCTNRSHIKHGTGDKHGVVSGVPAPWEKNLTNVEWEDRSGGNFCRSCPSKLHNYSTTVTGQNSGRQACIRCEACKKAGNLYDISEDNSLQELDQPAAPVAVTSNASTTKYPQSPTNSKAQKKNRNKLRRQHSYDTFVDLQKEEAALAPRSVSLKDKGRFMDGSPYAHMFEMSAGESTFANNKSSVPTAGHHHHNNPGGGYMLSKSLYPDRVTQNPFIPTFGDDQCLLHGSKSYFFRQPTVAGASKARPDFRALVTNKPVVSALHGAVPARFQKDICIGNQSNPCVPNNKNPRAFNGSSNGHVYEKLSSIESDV

| SMILES | immobility time in the FST relative to vehicle [1] | half-life for unblocking compared to 2-F-DCK (in words) [2] | Unblocking T1/2 ± SEM [2] [s] | microsomal CLint at 1 μM [3] [µL/min/mg] | Cmax ([4]; mouse brain) [ng/g] | half-life ([4]; mouse brain) [h] | Cmax ([4]; mouse plasma) [ng/mL] | AUC(0-t) ([4]; mouse plasma) [ng·h/mL] | half-life ([4]; mouse plasma) [h] | AUC0-last (po) ([4]; mouse brain) [ng·min/g] |
| --- | --- | --- | --- | --- | --- | --- | --- | --- | --- | --- |
| N[C@]1(c2ccc(F)cc2)CCCCC1=O [Compound 1S, (S)-2-amino-2-(4-fluorophenyl)cyclohexan-1-one] | reduced immobility time | – | – | – | – | – | – | – | – | – |
| CN[C@@]1(c2ccc(F)cc2)CCCCC1=O [Compound 2R, (R)-2-(4-fluorophenyl)-2(methylamino)cyclohexan-1-one] | reduced immobility time | much shorter half-life for unblocking | 22.7 ± 2.3 | 10.5 | 3280 | 2.97 | 1180 | 1120 | 1.38 | 200464 |
| CN[C@]1(c2ccc(F)cc2)CCCCC1=O [Compound 2S, (S)-2-(4-fluorophenyl)-2-(methylamino)cyclohexan-1-one] | – | much shorter half-life for unblocking | 27.0 ± 6.1 | 7.3 | 3540 | 2.18 | 1390 | 940 | 1.48 | 123388 |
